Test results reported in ChEMBL document CHEMBL1201862, “PubChem BioAssay data set” (2004).
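Each compound was tested at five concentrations against cells in 96-well plates for 48 hours. GI50 marks 50% less growth.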 Active and inactive are the calls of the source. No stated cut-off is given here; in the data, active = GI50 up to about 1.1 µM and inactive = higher.

What was measured:
Test in all cases: growth of human tumour cells (NCI), 48 h
A498 = system: A498
HCT-15 = system: HCT-15
HL-60 = system: HL-60
HT-29 = system: HT-29
Hs-578T = system: Hs-578T
K562 = system: K562
MDA-MB-435 = system: MDA-MB-435
MOLT-4 = system: MOLT-4
Malme-3M = system: Malme-3M
PC-3 = system: PC-3
RPMI-8226 = system: RPMI-8226
RXF 393 = system: RXF 393
SF-268 = system: SF-268
SF-295 = system: SF-295
SF-539 = system: SF-539
SR = system: SR
SW-620 = system: SW-620
T47D = system: T47D
UACC-62 = system: UACC-62

Measured: GI50

Cc1ccc(S[C@@](C=O)(NC(=O)OCc2ccccc2)C(F)(F)F)cc1
22.9 µM: HCT-15
inactive: A498 65 µM | HL-60 16.5 µM | HT-29 16.9 µM | Hs-578T 44.3 µM | K562 28.6 µM | MDA-MB-435 28.8 µM | MOLT-4 21.5 µM | Malme-3M 26.4 µM | PC-3 18.6 µM | RPMI-8226 20.6 µM | RXF 393 14.4 µM | SF-268 22.6 µM | SF-295 31 µM | SF-539 24.7 µM | SR 14.5 µM | SW-620 21.8 µM | T47D 23.8 µM | UACC-62 19.3 µM

c1cc2nnc1SCCCSc1ccc(nn1)SCCCSc1ccc(nn1)SCCCS2
inactive: A498 > 100 µM | HL-60 > 100 µM | HT-29 > 100 µM | Hs-578T 32.4 µM | K562 > 100 µM | MDA-MB-435 > 100 µM | MOLT-4 > 100 µM | Malme-3M > 100 µM | PC-3 > 100 µM | RPMI-8226 > 100 µM | RXF 393 56.4 µM | SF-268 92 µM | SF-295 > 100 µM | SF-539 82.4 µM | SR > 100 µM | SW-620 > 100 µM | T47D > 100 µM | UACC-62 > 100 µM
> 100 µM: HCT-15

CNc1ncnc(Sc2nc(N)nc3[nH]cnc23)c1[N+](=O)[O-]
1.54 µM: HCT-15
active: HT-29 1.09 µM | K562 0.33 µM | MDA-MB-435 0.48 µM | MOLT-4 0.409 µM | RPMI-8226 0.15 µM | RXF 393 0.45 µM | SF-268 0.566 µM | SF-295 0.971 µM | SR 0.1 µM | SW-620 0.94 µM | T47D 0.995 µM | UACC-62 0.586 µM
inactive: A498 17.9 µM | HL-60 1.91 µM | Hs-578T 3.24 µM | Malme-3M 1.46 µM | PC-3 4.23 µM | SF-539 5.09 µM

CCC(=O)Nc1ccc(NCC(=O)Nc2ccc(OC)cc2)cc1
32.8 µM: HCT-15
inactive: A498 27.7 µM | HL-60 28.2 µM | HT-29 20.9 µM | Hs-578T 30.3 µM | K562 35.6 µM | MDA-MB-435 30.5 µM | MOLT-4 39 µM | Malme-3M 21.6 µM | PC-3 26.2 µM | RPMI-8226 32.9 µM | RXF 393 16.4 µM | SF-268 17.7 µM | SF-295 46.7 µM | SF-539 17.5 µM | SR 31.8 µM | SW-620 35.2 µM | T47D 21.1 µM | UACC-62 19.1 µM

CC1=COC2=C(C)C(=O)C(=O)c3c(C)ccc1c32 [MANSONONE F]
inactive: A498 20.1 µM | HL-60 2.1 µM | HT-29 3.15 µM | Hs-578T 17.7 µM | K562 3.66 µM | MDA-MB-435 1.9 µM | MOLT-4 2.56 µM | Malme-3M 1.69 µM | PC-3 2.49 µM | RPMI-8226 1.42 µM | RXF 393 7.18 µM | SF-268 4.44 µM | SF-295 5.48 µM | SF-539 3.21 µM | SR 3.45 µM | SW-620 2.61 µM | T47D 8.24 µM | UACC-62 3.24 µM
2.43 µM: HCT-15

C=C1C(=O)O[C@H]2C/C(C)=C/CC[C@@]3(C)O[C@](C)(CC[C@@H]3I)[C@@H](I)C[C@@H]12
inactive: A498 9.68 µM | HT-29 3.37 µM | Hs-578T 8.49 µM | K562 1.95 µM | MDA-MB-435 3.86 µM | Malme-3M 7.59 µM | PC-3 4.91 µM | RXF 393 3.97 µM | SF-268 6.92 µM | SF-295 6.84 µM | SF-539 6.4 µM | SR 1.5 µM | SW-620 3.81 µM | T47D 5.46 µM | UACC-62 4.16 µM
active: HL-60 0.893 µM | MOLT-4 0.925 µM | RPMI-8226 0.959 µM
2.4 µM: HCT-15
